The supplement of paper PMC10307832

How the values were obtained:
Test in all cases: relative viability (nuclei count vs DMSO), 5 days (fraction); higher = more cells survive
AZD8055 + Dasatinib = compound: COc1ccc(-c2ccc3c(N4CCOC[C@@H]4C)nc(N4CCOC[C@@H]4C)nc3n2)cc1CO [AZD8055] + Cc1nc(Nc2ncc(C(=O)Nc3c(C)cccc3Cl)s2)cc(N2CCN(CCO)CC2)n1 [Dasatinib] (partner 0.075 µM)
In short: (§1)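 Relative viability is defined as nuclei in treated wells over nuclei in vehicle wells. Duplicate plates were run and medians reported. Lung cancer cell lines in 1536-well plates were dosed by pin tool one day after seeding, with one drug or with a fixed anchor-drug dose plus five library-drug doses (not always all listed) in √10 steps, and nuclei were counted after 5 days.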

AZD8055 + Luminespib = compound: COc1ccc(-c2ccc3c(N4CCOC[C@@H]4C)nc(N4CCOC[C@@H]4C)nc3n2)cc1CO [AZD8055] + CCNC(=O)c1noc(-c2cc(C(C)C)c(O)cc2O)c1-c1ccc(CN2CCOCC2)cc1 [Luminespib] (partner 0.01 µM)
In short: as §1

AZD8055 + Foretinib = compound: COc1ccc(-c2ccc3c(N4CCOC[C@@H]4C)nc(N4CCOC[C@@H]4C)nc3n2)cc1CO [AZD8055] + COc1cc2c(Oc3ccc(NC(=O)C4(C(=O)Nc5ccc(F)cc5)CC4)cc3F)ccnc2cc1OCCCN1CCOCC1 [Foretinib] (partner 0.25 µM)
In short: as §1

AZD8055 + Decitabine = compound: COc1ccc(-c2ccc3c(N4CCOC[C@@H]4C)nc(N4CCOC[C@@H]4C)nc3n2)cc1CO [AZD8055] + Nc1ncn([C@H]2C[C@H](O)[C@@H](CO)O2)c(=O)n1 [Decitabine] (partner 2 µM)
In short: as §1

Cell Line | relative viability (AZD8055 + Dasatinib; first compound 0.01 µM) | relative viability (AZD8055 + Dasatinib; first compound 0.03162 µM) | relative viability (AZD8055 + Dasatinib; first compound 0.1 µM) | relative viability (AZD8055 + Dasatinib; first compound 0.3162 µM) | relative viability (AZD8055 + Dasatinib; first compound 1 µM) | relative viability (AZD8055 + Luminespib; first compound 0.01 µM) | relative viability (AZD8055 + Luminespib; first compound 0.03162 µM) | relative viability (AZD8055 + Luminespib; first compound 0.1 µM) | relative viability (AZD8055 + Luminespib; first compound 0.3162 µM) | relative viability (AZD8055 + Luminespib; first compound 1 µM) | relative viability (AZD8055 + Foretinib; first compound 0.01 µM) | relative viability (AZD8055 + Foretinib; first compound 0.03162 µM) | relative viability (AZD8055 + Foretinib; first compound 0.1 µM) | relative viability (AZD8055 + Foretinib; first compound 0.3162 µM) | relative viability (AZD8055 + Foretinib; first compound 1 µM) | relative viability (AZD8055 + Decitabine; first compound 0.01 µM) | relative viability (AZD8055 + Decitabine; first compound 0.03162 µM) | relative viability (AZD8055 + Decitabine; first compound 0.1 µM) | relative viability (AZD8055 + Decitabine; first compound 0.3162 µM) | relative viability (AZD8055 + Decitabine; first compound 1 µM)
NCI-H358 | 0.169 | 0.173 | 0.0957 | 0.0735 | 0.0998 | 0.33 | 0.336 | 0.392 | 0.123 | 0.0919 | 1.03 | 0.887 | 0.585 | 0.264 | 0.181 | 0.22 | 0.24 | 0.177 | 0.134 | 0.113
NCI-H441 | 0.538 | 0.608 | 0.474 | 0.281 | 0.245 | 0.347 | 0.291 | 0.283 | 0.22 | 0.221 | 0.925 | 0.94 | 0.68 | 0.349 | 0.37 | 0.284 | 0.233 | 0.225 | 0.206 | 0.246
NCI-H460 | 0.554 | 0.365 | 0.213 | 0.0862 | 0.0669 | 0.03 | 0.029 | 0.0182 | 0.0223 | 0.0329 | 1.12 | 1.09 | 0.812 | 0.376 | 0.206 | 0.573 | 0.352 | 0.353 | 0.246 | 0.13
NCI-H520 | 0.142 | 0.13 | 0.15 | 0.14 | 0.171 | 0.239 | 0.228 | 0.171 | 0.183 | 0.16 | 0.635 | 0.344 | 0.35 | 0.173 | 0.172 | 0.486 | 0.242 | 0.229 | 0.176 | 0.165
NCI-H596 | 0.594 | 0.516 | 0.468 | 0.286 | 0.301 | 0.961 | 0.813 | 0.44 | 0.343 | 0.346 | 0.79 | 0.551 | 0.474 | 0.319 | 0.335 | 1.06 | 0.841 | 0.698 | 0.571 | 0.528
NCI-H647 | 0.179 | 0.136 | 0.132 | 0.0579 | 0.144 | 0.15 | 0.126 | 0.125 | 0.0957 | 0.121 | 1.18 | 0.941 | 0.61 | 0.405 | 0.229 | 0.35 | 0.271 | 0.198 | 0.195 | 0.126
NCI-H650 | 0.469 | 0.393 | 0.36 | 0.292 | 0.231 | 0.998 | 0.768 | 0.691 | 0.436 | 0.295 | 1.12 | 0.995 | 0.773 | 0.541 | 0.368 | 0.35 | 0.278 | 0.333 | 0.29 | 0.275
NCI-H661 | 0.845 | 0.867 | 0.633 | 0.368 | 0.305 | 0.971 | 0.906 | 0.886 | 0.424 | 0.367 | 1.06 | 0.99 | 0.795 | 0.5 | 0.425 | 0.502 | 0.482 | 0.449 | 0.359 | 0.331
NCI-H727 | 0.444 | 0.464 | 0.41 | 0.28 | 0.312 | 0.375 | 0.34 | 0.345 | 0.345 | 0.376 | 0.713 | 0.89 | 0.717 | 0.307 | 0.394 | 0.875 | 0.85 | 0.736 | 0.498 | 0.616
NCI-H838 | 0.269 | 0.264 | 0.262 | 0.231 | 0.217 | 0.317 | 0.223 | 0.234 | 0.156 | 0.196 | 1 | 0.913 | 0.597 | 0.398 | 0.347 | 0.513 | 0.343 | 0.305 | 0.278 | 0.296
NCI-H1355 | 0.551 | 0.443 | 0.435 | 0.218 | 0.263 | 0.601 | 0.369 | 0.234 | 0.238 | 0.206 | 0.865 | 0.77 | 0.712 | 0.332 | 0.278 | 0.395 | 0.335 | 0.321 | 0.248 | 0.231
NCI-H1395 | 0.405 | 0.376 | 0.37 | 0.31 | 0.292 | 0.669 | 0.379 | 0.684 | 0.445 | 0.36 | 0.982 | 0.774 | 0.835 | 0.505 | 0.528 | 0.767 | 0.585 | 0.615 | 0.419 | 0.506
NCI-H1437 | 0.498 | 0.444 | 0.275 | 0.187 | 0.124 | 1.28 | 1.26 | 1.23 | 0.775 | 0.365 | 1.38 | 1.37 | 1.24 | 0.869 | 0.482 | 0.612 | 0.553 | 0.509 | 0.363 | 0.302
NCI-H1650 | 0.317 | 0.302 | 0.292 | 0.19 | 0.265 | 0.204 | 0.196 | 0.206 | 0.203 | 0.253 | 0.998 | 1.02 | 0.886 | 0.778 | 0.449 | 0.535 | 0.432 | 0.439 | 0.384 | 0.358
NCI-H1651 | 0.455 | 0.368 | 0.307 | 0.226 | 0.253 | 0.925 | 0.798 | 0.779 | 0.412 | 0.313 | 0.702 | 0.774 | 0.575 | 0.363 | 0.263 | 0.69 | 0.319 | 0.481 | 0.416 | 0.347
NCI-H1666 | 0.928 | 0.853 | 0.739 | 0.698 | 0.579 | 1.06 | 1.03 | 0.977 | 0.772 | 0.693 | 0.981 | 1 | 0.969 | 0.694 | 0.615 | 0.744 | 0.685 | 0.627 | 0.702 | 0.685
